# Results from article PMC5925751 (American journal of hematology, 2017).
# “And” between values parts separate entries of the source, which are not always exact repeats. Identical values can stand only once.
# Key:
# AML blasts = conditions: cited from earlier work
# patients with AML [1] = experiment: Efficacy: objective response by Cheson response criteria; assay type: in vivo, human
# [2] = tested on: phosphorylated histone H3 (pHH3) in peripheral blood leukemic blasts; experiment: Pharmacodynamics: flow cytometric pHH3 assay in whole blood; assay type: in vivo, human; conditions: as early as 1 hour after treatment; regardless of dosing schedule; transient
# patients with AML [3] = experiment: Safety and tolerability; assay type: in vivo
# [4] = Pharmacokinetics, plasma AMG 900 by LC-MS/MS after multiple oral administrations; assay type: in vivo; conditions: human
# [5] = Total, all doses and schedules (n = 35)
smiles,measurement,setting,value
COc1cc(Nc2ncc3c(n2)-c2ccc(Cl)cc2C(c2c(F)cccc2OC)=NC3)ccc1C(=O)O [MLN8237],apoptosis of AML blasts,AML blasts,induced apoptosis
same,proliferation of AML blasts,AML blasts,inhibited proliferation
"Cc1csc(-c2nnc(Nc3ccc(Oc4ncccc4-c4ccnc(N)n4)cc3)c3ccccc23)c1 [AMG 900, N-(4-(3-(2-aminopyrimidin-4-yl)pyridin-2-yloxy)phenyl)-4-(4-methylthiophen-2-yl)p hthalazin-1-amine]",objective response rate,"patients with AML [1]; all patients, any dose, either schedule, 80% confidence interval: 3%, 18%",9%
same,duration of response,"patients with AML [1]; individual values of the three responders, 1.5 months is a censored observation",3 months and 1.5 months and < 1 months
same,inhibition of pHH3 expression in whole blood,[2],clear inhibition of pHH3 expression
same,Treatment-related adverse events by grade: Fatal,"patients with AML [3]; 15 mg, 4 days on/10 days off (n = 4)",0 (0) n (%)
same,Treatment-related adverse events by grade: Fatal,"patients with AML [3]; 25 mg, 4 days on/10 days off (n = 3)",0 (0) n (%)
same,Treatment-related adverse events by grade: Fatal,"patients with AML [3]; 30 mg, 7 days on/7 days off (n = 3)",0 (0) n (%)
same,Treatment-related adverse events by grade: Fatal,"patients with AML [3]; 40 mg, 4 days on/10 days off (n = 7)",1 (14) n (%)
same,Treatment-related adverse events by grade: Fatal,"patients with AML [3]; 40 mg, 7 days on/7 days off (n = 4)",0 (0) n (%)
same,Treatment-related adverse events by grade: Fatal,"patients with AML [3]; 50 mg, 7 days on/7 days off (n = 6)",1 (17) n (%)
same,Treatment-related adverse events by grade: Fatal,"patients with AML [3]; 60 mg, 4 days on/10 days off (n = 4)",0 (0) n (%)
same,Treatment-related adverse events by grade: Fatal,"patients with AML [3]; 80 mg, 4 days on/10 days off (n = 3)",0 (0) n (%)
same,Treatment-related adverse events by grade: Fatal,"patients with AML [3]; 100 mg, 4 days on/10 days off (n = 1)",0 (0) n (%)
same,Grade ≥ 3 treatment-related adverse events: Device-related infection,patients with AML [3]; [5],2 (6) n (%)
same,Grade ≥ 3 treatment-related adverse events: Septic shock,patients with AML [3]; [5],2 (6) n (%)
same,Treatment-related adverse events by grade: Fatal,patients with AML [3]; [5],2 (6) n (%)
same,"Treatment-related adverse events, all grades: Mucosal inflammation",patients with AML [3]; [5],4 (11) n (%)
same,"Treatment-related adverse events, all grades: Nausea",patients with AML [3]; [5],11 (31) n (%)
same,"Treatment-related adverse events, all grades: Rash",patients with AML [3]; [5],4 (11) n (%)
same,"Treatment-related adverse events, all grades: Vomiting",patients with AML [3]; [5],6 (17) n (%)
same,maximum tolerated dose (MTD),patients with AML [3]; either dosing schedule,not formally reached
same,Any treatment-related adverse events,"patients with AML [3]; human, in vivo",30 (86) n (%)
same,Grade ≥ 3 treatment-related adverse events: Diarrhea,"patients with AML [3]; human, in vivo",2 (6) n (%)
same,Grade ≥ 3 treatment-related adverse events: Febrile neutropenia,"patients with AML [3]; human, in vivo",10 (29) n (%)
same,Grade ≥ 3 treatment-related adverse events: Pancytopenia,"patients with AML [3]; human, in vivo",2 (6) n (%)
same,Grade ≥ 3 treatment-related adverse events: Thrombocytopenia,"patients with AML [3]; human, in vivo",2 (6) n (%)
same,Treatment-related adverse events by grade: Grade ≥ 3,"patients with AML [3]; human, in vivo",16 (46) n (%)
same,Treatment-related adverse events by grade: Grade ≥ 4,"patients with AML [3]; human, in vivo",5 (14) n (%)
same,"Treatment-related adverse events, all grades: Alopecia","patients with AML [3]; human, in vivo",5 (14) n (%)
same,"Treatment-related adverse events, all grades: Diarrhea","patients with AML [3]; human, in vivo",10 (29) n (%)
same,"Treatment-related adverse events, all grades: Dyspnea","patients with AML [3]; human, in vivo",4 (11) n (%)
same,"Treatment-related adverse events, all grades: Epistaxis","patients with AML [3]; human, in vivo",4 (11) n (%)
same,"Treatment-related adverse events, all grades: Fatigue","patients with AML [3]; human, in vivo",8 (23) n (%)
same,"Treatment-related adverse events, all grades: Febrile neutropenia","patients with AML [3]; human, in vivo",10 (29) n (%)
same,median (range) duration of febrile neutropenia,"patients with AML [3]; human, in vivo","8 (1, 45) days"
same,serious treatment-related AE: device-related infection,"patients with AML [3]; human, in vivo",6%
same,serious treatment-related AE: febrile neutropenia,"patients with AML [3]; human, in vivo",26%
same,serious treatment-related AE: septic shock,"patients with AML [3]; human, in vivo",6%
same,"treatment-related AE, any grade: alopecia","patients with AML [3]; human, in vivo",14%
same,"treatment-related AE, any grade: nausea","patients with AML [3]; human, in vivo",31%
same,"treatment-related AE, any grade: vomiting","patients with AML [3]; human, in vivo",17%
same,tolerability of highest dose evaluated,patients with AML [3]; in vivo,tolerated
same,patients with serious treatment-related AEs,"patients with AML [3]; overall, 11 patients",31%
same,patients who discontinued AMG 900 treatment due to AEs,"patients with AML [3]; overall, five patients",14%
same,patients who died during the study,"patients with AML [3]; overall, nine patients, two deaths considered treatment-related",26%
same,AUC(0-t),[4]; 15 mg,1380 ng·h/mL
same,Cmax,[4]; 15 mg,501 ng/mL
same,AUC(0-t),[4]; 25 mg,2740 ng·h/mL
same,Cmax,[4]; 25 mg,951 ng/mL
same,AUC(0-t),[4]; 40 mg,4360 ng·h/mL
same,Cmax,[4]; 40 mg,1600 ng/mL
same,AUC(0-t),[4]; 60 mg,5620 ng·h/mL
same,Cmax,[4]; 60 mg,1890 ng/mL
same,AUC(0-t),[4]; 80 mg,3210 ng·h/mL
same,Cmax,[4]; 80 mg,1430 ng/mL
same,AUC(0-t),[4]; 100 mg,10200 ng·h/mL
same,Cmax,[4]; 100 mg,3670 ng/mL
